# Experimental data from patent US8716284B2, “Adamantyl diamide derivatives and uses of same” (H. Lundbeck A/S, priority 2008, dated 2014).
# Target: T1, rat metabotropic glutamate receptor 5 (mGluR5) (Rattus norvegicus, UniProt P31424)
# T1 construct: expressed in transfected cells; host or cells: HEK 293
# Assay: Calcium mobilization assay (FLIPR) for negative or positive allosteric activity, HEK 293 cells
# Format: cell-based
# Conditions: HEK293, negative allosteric modulation, inhibition of EC80 glutamate response; read-out: FLIPR maximum inhibition
# How it was run: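 HEK 293 cells stably expressing rat mGluR5, Fluo-4 loaded in HEPES-buffered HBSS pH 7.4 with 0.1% BSA and probenecid. Compound added with EC20 (potentiation) or EC80 (inhibition) glutamate; fluorescence read over 3 min at room temperature. Basal-subtracted maximum fluorescence change fitted to Hill equation.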
# T1 sequence (P31424 21-1171 isoform P31424-2 limits assumed): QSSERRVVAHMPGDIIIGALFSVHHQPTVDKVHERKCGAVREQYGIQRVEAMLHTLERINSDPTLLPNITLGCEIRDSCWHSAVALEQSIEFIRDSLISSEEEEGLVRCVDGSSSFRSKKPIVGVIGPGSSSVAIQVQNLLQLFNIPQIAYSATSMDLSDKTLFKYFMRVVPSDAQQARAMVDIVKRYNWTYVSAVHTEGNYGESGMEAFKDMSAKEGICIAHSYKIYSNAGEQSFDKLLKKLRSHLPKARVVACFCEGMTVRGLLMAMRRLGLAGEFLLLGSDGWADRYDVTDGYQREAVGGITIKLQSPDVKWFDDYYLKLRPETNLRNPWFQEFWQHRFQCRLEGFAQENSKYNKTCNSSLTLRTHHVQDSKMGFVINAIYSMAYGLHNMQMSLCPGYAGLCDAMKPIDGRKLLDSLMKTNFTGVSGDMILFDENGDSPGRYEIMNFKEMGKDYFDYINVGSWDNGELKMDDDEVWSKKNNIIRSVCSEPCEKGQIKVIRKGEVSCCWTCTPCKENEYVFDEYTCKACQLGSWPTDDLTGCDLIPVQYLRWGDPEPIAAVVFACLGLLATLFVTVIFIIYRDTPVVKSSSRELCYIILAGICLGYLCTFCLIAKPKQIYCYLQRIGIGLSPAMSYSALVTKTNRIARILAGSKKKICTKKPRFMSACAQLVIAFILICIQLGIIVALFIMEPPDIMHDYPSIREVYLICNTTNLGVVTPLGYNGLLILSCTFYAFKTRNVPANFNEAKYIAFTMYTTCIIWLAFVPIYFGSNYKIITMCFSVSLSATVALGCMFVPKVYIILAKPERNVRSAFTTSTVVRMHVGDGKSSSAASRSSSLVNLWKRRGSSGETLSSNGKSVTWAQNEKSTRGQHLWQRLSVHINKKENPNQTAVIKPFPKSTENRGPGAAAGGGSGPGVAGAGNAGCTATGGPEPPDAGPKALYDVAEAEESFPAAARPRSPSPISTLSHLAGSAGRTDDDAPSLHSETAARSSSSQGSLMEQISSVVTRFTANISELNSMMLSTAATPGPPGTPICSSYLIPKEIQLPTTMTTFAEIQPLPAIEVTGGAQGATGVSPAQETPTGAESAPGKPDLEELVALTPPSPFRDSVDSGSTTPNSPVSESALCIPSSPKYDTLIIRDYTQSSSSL
row,Compound,Emax
1,"Cc1cnc(C(=O)NC23CC4CC(C2)CC(NC(=O)c2ccn(C)n2)(C4)C3)cn1 [Example 18, 5-Methyl-pyrazine-2-carboxylic acid {3-[(1-methyl-1H-pyrazole-3-carbonyl)-amino]-adamantan-1-yl}-amide]",63 to 99%
2,"O=C(NC12CC3CC(C1)CC(NC(=O)C1CCCC1)(C3)C2)c1ccccn1 [Example 85, Pyridine-2-carboxylic acid [3-(cyclopentanecarbonyl-amino)-adamantan-1-yl]-amide]",63 to 99%
3,"Cc1cccc(C(=O)NC23CC4CC(CC(NC(=O)c5cc(C6CC6)on5)(C4)C2)C3)n1 [Example 26, 6-Methyl-pyridine-2-carboxylic acid {3-[(5-cyclopropyl-isoxazole-3-carbonyl)-amino]-adamantan-1-yl}-amide]",63 to 99%
4,"Cc1cncc(C(=O)NC23CC4CC(CC(NC(=O)c5cccc(OC(F)F)c5)(C4)C2)C3)n1 [Example 162, 6-Methyl-pyrazine-2-carboxylic acid [3-(3-difluoro-methoxy-benzoylamino)-adamantan-1-yl]-amide]",70 to 99%
5,"Cc1cccc(C(=O)NC23CC4CC(C2)CC(NC(=O)c2cccc(C(N)=O)n2)(C4)C3)n1 [Example 133, Pyridine-2,6-dicarboxylic acid 2-amide 6-({3-[(6-methyl-pyridine-2-carbonyl)-amino]-adamantan-1-yl}-amide)]",70 to 99%
6,"O=C(NC12CC3CC(C1)CC(NC(=O)c1onc4ccccc14)(C3)C2)c1ccccn1 [Example 62, Benzo[c]isoxazole-3-carboxylic acid {3-[(pyridine-2-carbonyl)-amino]-adamantan-1-yl}-amide]",63 to 99%
7,"COc1cccc(C(=O)NC23CC4CC(CC(NC(=O)c5ccccn5)(C4)C2)C3)n1 [Example 68, 6-Methoxy-pyridine-2-carboxylic acid {3-[(pyridine-2-carbonyl)-amino]-adamantan-1-yl}-amide]",63 to 99%
8,"Cc1cccc(C(=O)NC23CC4CC(C2)CC(NC(=O)c2nccs2)(C4)C3)n1 [Example 40, 6-Methyl-pyridine-2-carboxylic acid {3-[(thiazole-2-carbonyl)-amino]-adamantan-1-yl}-amide]",63 to 99%

# Other lines, results leading:
row,Emax,Compound
1,63 to 99%,"NC(=O)CCNc1cccc(C(=O)NC23CC4CC(CC(NC(=O)c5cccc(F)c5)(C4)C2)C3)n1 [Example 252, 6-(2-Carbamoyl-ethylamino)-pyridine-2-carboxylic acid [3-(3-fluoro-benzoylamino)-adamantan-1-yl]-amide]"
2,63 to 99%,"CN(C)CCN(C)c1cccc(C(=O)NC23CC4CC(CC(NC(=O)c5ccccn5)(C4)C2)C3)n1 [Example 227, 6-[(2-Dimethylamino-ethyl)-methyl-amino]-pyridine-2-carboxylic acid {3-[(pyridine-2-carbonyl)-amino]-adamantan-1-yl}-amide]"
3,63 to 99%,"Cc1cncc(C(=O)NC23CC4CC(C2)CC(NC(=O)c2ncccn2)(C4)C3)n1 [Example 172, Pyrimidine-2-carboxylic acid {3-[(6-methyl-pyrazine-2-carbonyl)-amino]-adamantan-1-yl}-amide]"
4,63 to 99%,"O=C(NC12CC3CC(C1)CC(NC(=O)c1cccc(N4CCOCC4)n1)(C3)C2)c1ccccn1 [Example 197, 6-Morpholin-4-yl-pyridine-2-carboxylic acid {3-[(pyridine-2-carbonyl)-amino]-adamantan-1-yl}-amide]"
5,63 to 99%,"O=C(NC12CC3CC(C1)CC(NC(=O)c1cccc(N4CCC(O)CC4)n1)(C3)C2)c1ccccn1 [Example 200, 4-Hydroxy-3,4,5,6-ttrahydro-2H-[1,2′]bipyridinyl-6′-carboxylic acid {3-[(pyridine-2-carbonyl)-amino]-adamantan-1-yl}-amide]"

# Same assay, conditions: positive modulation, increase in EC20 glutamate response
EC50,maximum modulation,Compound
830 nM,120%,"Cc1cncc(C(=O)NC23CC4CC(CC(NC(=O)c5cc(-c6ccccc6)ncn5)(C4)C2)C3)n1 [Example 257, 6-Phenyl-pyrimidine-4-carboxylic acid {3-[(6-methyl-pyrazine-2-carbonyl)-amino]-adamantan-1-yl}-amide]"
